PubChem BioAssay (NCI)
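Tested at 5 concentrations; 48 h exposure; 96-well plates; endpoints linearly interpolated, else capped at highest concentration. GI50 = concentration required for 50% inhibition of growth. TGI denotes the concentration required for complete inhibition of growth.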

Experiments:
Assay in all cases: NCI-60 cell line screen, 48 h
ACHN renal = system: ACHN renal
NCI-H226 lung = system: NCI-H226 lung
SF-268 CNS = system: SF-268 CNS
SK-MEL-28 melanoma = system: SK-MEL-28 melanoma
SK-OV-3 ovarian = system: SK-OV-3 ovarian
UACC-62 melanoma = system: UACC-62 melanoma
SR leukemia = system: SR leukemia
HS 578T breast = system: HS 578T breast
MDA-MB-231 breast = system: MDA-MB-231 breast
MDA-MB-435 = system: MDA-MB-435

Row | SMILES | TGI (ACHN renal) | TGI (NCI-H226 lung) | TGI (SF-268 CNS) | TGI (SK-MEL-28 melanoma) | TGI (SK-OV-3 ovarian) | TGI (UACC-62 melanoma) | TGI (SR leukemia) | GI50 (ACHN renal) | GI50 (HS 578T breast) | TGI (HS 578T breast) | GI50 (MDA-MB-231 breast) | TGI (MDA-MB-231 breast) | GI50 (MDA-MB-435) | TGI (MDA-MB-435) | GI50 (NCI-H226 lung) | GI50 (SK-MEL-28 melanoma) | GI50 (SK-OV-3 ovarian) | GI50 (UACC-62 melanoma) | GI50 (SF-268 CNS) | GI50 (SR leukemia)
1 | O=S1c2ccccc2NC(c2ccc3ccccc3c2)CC1c1ccccc1 (stereo unspecified) | 52.2 µM | 48.9 µM | > 100 µM | > 100 µM | > 100 µM | > 100 µM |  |  |  |  |  |  |  |  |  |  |  |  |  | 
2 | CCOC(=O)C(=O)Nc1ccccc1OCC | > 100 µM | > 100 µM | > 100 µM | > 100 µM | > 100 µM | > 100 µM |  |  |  |  |  |  |  |  |  |  |  |  |  | 
3 | O=C1CCNC(=O)NC1 | > 100 µM | > 100 µM | > 100 µM | > 100 µM | > 100 µM | > 100 µM | > 100 µM |  |  |  |  |  |  |  |  |  |  |  |  | 
4 | O=C(O)c1cn(C2CC2)c2cc(N3CCNCC3)c(F)cc2c1=O | > 100 µM | > 100 µM |  | > 100 µM | > 100 µM | > 100 µM |  | > 100 µM | 42.3 µM | > 100 µM | > 100 µM | > 100 µM | > 100 µM | > 100 µM | > 100 µM | > 100 µM | > 100 µM | > 100 µM |  | 
5 | O=C(Oc1ccccc1Cl)c1ccccc1Nc1cccc(C(F)(F)F)c1 | > 100 µM | 47.9 µM | 60.6 µM | > 100 µM | > 100 µM | 42.9 µM |  | 40.3 µM | 26.1 µM | 67.1 µM | 20.2 µM | 48.3 µM | 11.7 µM | 32.3 µM | 20.2 µM | 38.5 µM | 47.5 µM | 16.9 µM | 20.5 µM | 
6 | O=C1CC(c2ccsc2)c2snc(-c3ccc(Cl)cc3)c2N1 (stereo unspecified) | > 100 µM | > 100 µM | > 100 µM | > 100 µM | 12 µM | > 100 µM |  | 5.39 µM | 2.59 µM | > 100 µM | 1.33 µM | > 100 µM | 0.26 µM | 0.977 µM | 7.55 µM | 3.11 µM | 2.17 µM | 0.859 µM | 4.87 µM | 
7 | COC1C(CO)OC(n2c3c(Cl)cccc3c3c4c(c5c6cccc(Cl)c6[nH]c5c32)C(=O)NC4=O)C(O)C1O (stereo unspecified) | 1.47 µM | 0.666 µM | > 51.7 µM | > 73.5 µM | > 24.9 µM | 0.257 µM |  |  |  | > 100 µM |  | > 54.7 µM |  | > 100 µM |  |  |  |  |  | 
8 | O=C(c1ccco1)c1nc2cc(C(F)(F)F)ccc2[n+]([O-])c1C(F)(F)F | > 100 µM |  | > 100 µM | > 100 µM | > 100 µM | > 100 µM | > 100 µM | 47.1 µM | 51.9 µM | > 100 µM | 68.8 µM | > 100 µM | 37 µM | > 100 µM |  | 41.4 µM | > 100 µM | 45.9 µM | 52.4 µM | 41.4 µM
9 | CN(C)c1ccc(Nc2c3ccccc3nc3cc(NC(=O)CCN4CCCC4)ccc23)cc1 | 1.12 µM | 2.59 µM | 1.88 µM | 2.85 µM | 1.78 µM | 2.11 µM | 1.24 µM | 0.321 µM |  |  | 1.23 µM | 2.92 µM | 1.22 µM | 2.49 µM | 0.577 µM | 1.46 µM | 0.413 µM | 0.774 µM | 0.473 µM | 0.0421 µM
